We go through one molecule from patent publication US20260108451A1, “COMPOSITIONS FOR THE MANAGEMENT OF HIRSUTISM” (priority 2022, published 2026).

The subject of the test is Ornithine decarboxylase (ODC). Kind of test: Expression of ornithine decarboxylase (ODC) by flow cytometry in dermal papilla cells. Format: cell-based, human. The settings on record: Control 26.8%. On the procedure: Dermal papilla cells (DPC) were cultured in DMEM medium with 10% FBS and seeded in 96 well tissue culture plate for the test. 24 hrs post seeding, DPC were treated with the test sample Ar-Turmerone at graded concentrations and incubated for 48 hrs in 5% CO2 incubator at 37° C. After 48 hrs the cells were collected from each well. These cells were incubated with Fluorescein isothiocyanate (FITC) labelled Ornithine-de-carboxylase antibody. After being washed with sterile PBS, samples were resuspended in PBS (pH 7.4) and acquired directly on the Flow cytometer. A fluorescence trigger was set on the FITC (FL1) parameter of the gated DPC populations (10,000 events). Percentage decrease of ODC expression in test samples was calculated with respect to un-treated cells (control), (FIG. 1).
(Flow cytometry measures light scatter and fluorescence of single cells or particles in a stream.)

`NCCCC(N)(C(=O)O)C(F)F` (stereo not shown) [Eflornithine]: the “% Expression of ODC at 100 μg/ml” value is 11.4%.
